Source: patent US20230135100A1, “PROCESS OF PREPARING A PEPTIDE EPOXYKETONE IMMUNOPROTEASOME INHIBITOR, AND PRECURSORS THEREOF” (KEZAR LIFE SCIENCES, priority 2016, published 2023)
“And” between values parts separate entries of the source, which are not always exact repeats. Equal entries are not always repeated. Structures can show the parent of a compound that is named as a salt. Where two headings read alike, the source gives them in different places.

Conditions: 25° C., relative humidity 40%

| Structure (SMILES) | % Purity at Indicated Time (days) (90 days) | % Decomposition (1 day) | % Purity at Indicated Time (days) (1 day) |
| --- | --- | --- | --- |
| C[C@]1(C(=O)[C@@H](N)CC2=CCCC2)CO1 [Tosylate, (S)-3-(cyclopent-1-en-1-yl)-1-((R)-2-methyloxiran-2-yl)-1-oxopropan-2-aminium salt] | 96.0 (90) % and 85.0 (90) % |  |  |
| C[C@]1(C(=O)[C@@H](N)CC2=CCCC2)CO1 [Trifluoroacetate, (S)-3-(cyclopent-1-en-1-yl)-1-((R)-2-methyloxiran-2-yl)-1-oxopropan-2-aminium salt] |  | 5.7% and 8.8% | 79.6 (1) % and 86.0 (1) % |
